Reference: patent publication US20120203161A1, “DEUTERATED WATER AND RIBOFLAVIN SOLUTION FOR EXTENDING SINGLET OXYGEN LIFETIMES IN TREATMENT OF OCULAR TISSUE AND METHOD OF USE” (SEROS MEDICAL, LLC, priority 2009, published 2012)

Test system: endothelial cell

**Q.** How did the endothelial cell apoptosis turn out when `[2H]O[2H]` [deuterated water, deuterium oxide] was run?
**A.** does not induce endothelial cell apoptosis
